Several values for one entry are separate records, joined by “and”; a condition that tells them apart may be missing. Equal entries are not always repeated.
Legend:
[1] = system: Escherichia coli WP2uvrA (pKM101); experiment: Bacterial reverse mutation assay, WP2uvrA (pKM101); details: S9+, 2.0 μg/plate, positive control
[2] = system: Salmonella typhimurium TA98; experiment: Bacterial reverse mutation assay, TA98; details: TA98, S9+, 1.0 μg/plate, positive control
[3] = system: Salmonella typhimurium TA100; experiment: Bacterial reverse mutation assay, TA100; details: TA100, S9+, 2.0 μg/plate, positive control
[4] = system: Salmonella typhimurium TA1535; experiment: Bacterial reverse mutation assay, TA1535; details: TA1535, S9+, 3.0 μg/plate, positive control
[5] = system: Salmonella typhimurium TA1537; experiment: Bacterial reverse mutation assay, TA1537; details: TA1537, S9+, 3.0 μg/plate, positive control

## Nc1ccc2cc3ccccc3cc2c1 [2-Aminoanthracene (2-AA), 2-Aminoanthracene]
[1]
  Mean revertant colony count: 462 and 545
[2]
  Mean revertant colony count: 362 and 440
[3]
  Mean revertant colony count: 592 and 838
[4]
  Mean revertant colony count: 101
[5]
  Mean revertant colony count: 129 and 220
